From patent US20220331303A1, “USE OF AN OREXIN 2 RECEPTOR AGONIST FOR THE TREATMENT OF EXCESSIVE SLEEPINESS” (Takeda Pharmaceutical Company Limited, priority 2019, published 2022)
Values joined by “and” are separate entries in the source; they are usually repeats but may differ in a detail not shown here. Equal entries are not always repeated.

Tested on: sleep-deprived healthy volunteers
Test: Maintenance of wakefulness test (MWT) in sleep-deprived healthy volunteers
Assay type: in vivo, human
Details: for Stage N2 Duration (MWT), LS Mean Difference vs placebo / Total Microsleeps (MWT), LS Mean / Total Microsleeps (MWT), LS Mean Difference vs placebo / Duration Total Microsleeps (MWT), LS Mean / Duration Total Microsleeps (MWT), LS Mean Difference vs placebo / Latency to Sleep Onset on MWT, LS Mean / Latency to Sleep Onset on MWT, LS Mean Difference vs placebo / Stage N1 Duration (MWT), LS Mean / Stage N1 Duration (MWT), LS Mean Difference vs placebo / Stage N2 Duration (MWT), LS Mean: Compound A 112 mg (HD)
Protocol: The primary objective of this study was to determine the effect of Compound A (methyl (2R,3S)-3-((methylsulfonyl)amino)-2-(((cis-4-phenylcyclohexyl)oxy)methyl)piperidine-1-carboxylate), 44 mg (low dose [LD]) and 112 mg (high dose [HD]), after a single IV dose (compared to placebo) on promoting wakefulness as measured by sleep latency on the MWT (performed at approximately 2, 4, 6, and 8 hours post-dosing starting at approximately 1:00 AM and then at approximate times of 3:00, 5:00, and 7:00 AM) in sleep-deprived healthy volunteers.
This was a phase 1b, single-center, randomized, double-blind, double-dummy, placebo- and active-controlled, 4-period Williams design crossover study to evaluate the PK, PD, and safety of Compound A in sleep-deprived healthy volunteers. Compound A was administered as a 9-hour IV infusion.
Healthy adult male subjects aged 18 to 40 years, inclusive, who satisfied the inclusion and exclusion criteria were enrolled in the trial. On Day 1 of treatment period 1, eligible subjects were equally randomized to 4 treatment sequence groups (sequence 1 to 4) which defined the order of administration for Compound A LD, Compound A HD (both delivered as a 9-hour IV infusion), modafinil 300 mg, and placebo.
During the day before dosing on Day 1, participants were administered the KSS at scheduled timepoints. A practice MWT session was performed on Day 1 treatment period 1 (only once during the entire study) to familiarize subjects with the procedures. Study drug was administered in the clinic in the evening on Day 1 of each treatment period. Subjects underwent the MWT and KSS at specified timepoints after the start of the infusion. Subjects were required to stay awake between the MWT tests. Following completion of the IV infusion on Day 2, subjects underwent an additional MWT test. When the final MWT test and cognitive testing were completed, subjects were allowed to sleep (recovery sleep) for approximately 6 hours. PSG recording was collected during this time. Subjects were discharged from the unit after completion on Day 2 with continuing actigraphy upon discharge (to begin on Day −6 before the next treatment period). The interval between each subsequent treatment period was at least 7 days to ensure that the subject's circadian rhythm had returned to a normal cycle. Subject's vital signs, including BP, were monitored during the dosing and testing period. Blood samples for determination of Compound A plasma concentrations were collected at specified timepoints on Days 1 and 2 of each treatment period. Subjects completed the Columbia-Suicide Severity Rating Scale (C-SSRS) during screening, before study drug administration, and before discharge on Day 2 of each treatment period.
Primary endpoint: Latency for each MWT, defined as time to sleep onset.

[1] = average overall during infusion
[2] = Compound A 112 mg, after the end of infusion (1 hour post end of infusion)
[3] = HD: Compound A 112 mg, 2 HOURS POST INFUSION START
[4] = HD: Compound A 112 mg, 4 HOURS POST INFUSION START
[5] = HD: Compound A 112 mg, 6 HOURS POST INFUSION START
[6] = HD: Compound A 112 mg, 8 HOURS POST INFUSION START
[7] = HD: Compound A 112 mg, Average Overall, MWT during infusion
[8] = LD: Compound A 44 mg, 2 HOURS POST INFUSION START
[9] = LD: Compound A 44 mg, 4 HOURS POST INFUSION START
[10] = LD: Compound A 44 mg, 6 HOURS POST INFUSION START
[11] = LD: Compound A 44 mg, 8 HOURS POST INFUSION START
[12] = LD: Compound A 44 mg, Average Overall, MWT during infusion

Compound: COC(=O)N1CCC[C@H](NS(C)(=O)=O)[C@@H]1CO[C@H]1CC[C@@H](c2ccccc2)CC1 [Compound A, methyl (2R,3S)-3-((methylsulfonyl)amino)-2-(((cis-4-phenylcyclohexyl)oxy)methyl)piperidine-1-carboxylate]
- Stage N2 Duration (MWT), LS Mean Difference vs placebo (4 hours post infusion start): -1.15 min
- Total Microsleeps (MWT), LS Mean (4 hours post infusion start): 0.00
- Total Microsleeps (MWT), LS Mean Difference vs placebo (4 hours post infusion start): −2.35
- Duration Total Microsleeps (MWT), LS Mean (6 hours post infusion start): 0.43 s
- Duration Total Microsleeps (MWT), LS Mean Difference vs placebo (6 hours post infusion start): -6.97 s
- Latency to Sleep Onset on MWT, LS Mean (6 hours post infusion start): 38.36 min
- Latency to Sleep Onset on MWT, LS Mean Difference vs placebo (6 hours post infusion start): 32.21 min
- Stage N1 Duration (MWT), LS Mean (6 hours post infusion start): 0.07 min
- Stage N1 Duration (MWT), LS Mean Difference vs placebo (6 hours post infusion start): -1.08 min
- Stage N2 Duration (MWT), LS Mean (6 hours post infusion start): 0.06 min
- Stage N2 Duration (MWT), LS Mean Difference vs placebo (6 hours post infusion start): -0.44 min
- Total Microsleeps (MWT), LS Mean (6 hours post infusion start): 0.11
- Total Microsleeps (MWT), LS Mean Difference vs placebo (6 hours post infusion start): −1.14
- Duration Total Microsleeps (MWT), LS Mean (8 hours post infusion start): 5.21 s
- Duration Total Microsleeps (MWT), LS Mean Difference vs placebo (8 hours post infusion start): -2.59 s
- Latency to Sleep Onset on MWT, LS Mean (8 hours post infusion start): 36.86 min
- Latency to Sleep Onset on MWT, LS Mean Difference vs placebo (8 hours post infusion start): 33.33 min
- Stage N1 Duration (MWT), LS Mean (8 hours post infusion start): 0.18 min
- Stage N1 Duration (MWT), LS Mean Difference vs placebo (8 hours post infusion start): -0.97 min
- Stage N2 Duration (MWT), LS Mean (8 hours post infusion start): 0.28 min
- Stage N2 Duration (MWT), LS Mean Difference vs placebo (8 hours post infusion start): -0.82 min
- Total Microsleeps (MWT), LS Mean (8 hours post infusion start): 1.11
- Total Microsleeps (MWT), LS Mean Difference vs placebo (8 hours post infusion start): −0.19
- Duration Total Microsleeps (MWT), LS Mean [1]: 1.40 s
- Duration Total Microsleeps (MWT), LS Mean Difference vs placebo [1]: -7.68 s
- Latency to Sleep Onset on MWT, LS Mean [1]: 38.82 min and 38.82 (1.955) min
- Latency to Sleep Onset on MWT, LS Mean Difference vs placebo [1]: 30.21 min and 30.2 min and 30.21 (2.682) min
- Stage N1 Duration (MWT), LS Mean [1]: 0.04 min
- Stage N1 Duration (MWT), LS Mean Difference vs placebo [1]: -1.23 min
- Stage N2 Duration (MWT), LS Mean [1]: 0.09 min
- Stage N2 Duration (MWT), LS Mean Difference vs placebo [1]: -0.81 min
- Total Microsleeps (MWT), LS Mean [1]: 0.31
- Latency to Sleep Onset on MWT, LS Mean (SE) [2]: 2.36 (2.241)
- Latency to Sleep Onset on MWT, LS Mean Difference vs placebo, Estimate (SE) [2]: −2.29 (2.752)
- Total Sleep Time LS Mean [3]: 0.02 min
- Total Sleep Time LS Mean Difference vs Placebo Estimate [3]: -2.71 min
- Total Wake Time LS Mean [3]: 39.89 min
- Total Wake Time LS Mean Difference vs Placebo Estimate [3]: 22.17 min
- Total Sleep Time LS Mean [4]: -0.01 min
- Total Sleep Time LS Mean Difference vs Placebo Estimate [4]: -3.16 min
- Total Wake Time LS Mean [4]: 40.08 min
- Total Wake Time LS Mean Difference vs Placebo Estimate [4]: 30.03 min
- Total Sleep Time LS Mean [5]: 0.21 min
- Total Sleep Time LS Mean Difference vs Placebo Estimate [5]: -2.01 min
- Total Wake Time LS Mean [5]: 38.86 min
- Total Wake Time LS Mean Difference vs Placebo Estimate [5]: 32.44 min
- Total Sleep Time LS Mean [6]: 0.57 min
- Total Sleep Time LS Mean Difference vs Placebo Estimate [6]: -2.35 min
- Total Wake Time LS Mean [6]: 37.36 min
- Total Wake Time LS Mean Difference vs Placebo Estimate [6]: 33.71 min
- Total Sleep Time LS Mean [7]: 0.20 min
- Total Sleep Time LS Mean Difference vs Placebo Estimate [7]: -2.56 min
- Total Wake Time LS Mean [7]: 39.05 min
- Total Wake Time LS Mean Difference vs Placebo Estimate [7]: 29.59 min
- Total Sleep Time LS Mean [8]: 0.47 min
- Total Sleep Time LS Mean Difference vs Placebo Estimate [8]: -2.26 min
- Total Wake Time LS Mean [8]: 35.73 min
- Total Wake Time LS Mean Difference vs Placebo Estimate [8]: 18.00 min
- Total Sleep Time LS Mean [9]: 1.27 min
- Total Sleep Time LS Mean Difference vs Placebo Estimate [9]: -1.88 min
- Total Wake Time LS Mean [9]: 32.42 min
- Total Wake Time LS Mean Difference vs Placebo Estimate [9]: 22.37 min
- Total Sleep Time LS Mean [10]: 4.69 min
- Total Sleep Time LS Mean Difference vs Placebo Estimate [10]: 2.47 min
- Total Wake Time LS Mean [10]: 21.78 min
- Total Wake Time LS Mean Difference vs Placebo Estimate [10]: 15.36 min
- Total Sleep Time LS Mean [11]: 5.63 min
- Total Sleep Time LS Mean Difference vs Placebo Estimate [11]: 2.71 min
- Total Wake Time LS Mean [11]: 13.37 min
- Total Wake Time LS Mean Difference vs Placebo Estimate [11]: 9.72 min
- Total Sleep Time LS Mean [12]: 3.02 min
- Total Sleep Time LS Mean Difference vs Placebo Estimate [12]: 0.26 min
- Total Wake Time LS Mean [12]: 25.83 min
- Total Wake Time LS Mean Difference vs Placebo Estimate [12]: 16.36 min
- Compound A plasma concentration at which magnitude of wake-promoting effects appeared to diminish over time (sleep latency vs plasma concentration by MWT session (FIG. 8)): less than 200 ng/mL
